Data from US12409206B2, “Use of cyclosporine analogues for treating fibrosis” (Hepion Pharmaceuticals, Inc., priority 2020, dated 2025).

Key:
Type in all cases: cell-based
[1] = system: human precision cut liver slices (PCLS); assay: PCLS gene expression by RT-PCR; details: CRV431 applied at 5 μM; markers MCP-1, IL-6, TIMP1, αSMA, collagen 1α1
Method: (§1) PCLS were obtained from 5 human donors who underwent resection of liver cancer. Replicate slices were collected from healthy margins of the resections and cultured for 4 or 6 days depending on the experimental protocol. In the Nonstimulation Protocol slices were cultured for 6 days and treated for the entire period with DMSO vehicle or 5 μM CRV431. In the Stimulation Protocol slices were rested for 1 day and then administered the cytokines, TGFβ and PDGF-BB, for 3 days to stimulate inflammation and fibrosis. DMSO vehicle, CRV431 (1 and 5 μM), Alk5i (10 μM), obeticholic acid (5 μM), elafibranor (5 μM), resmetirom ([…]), and Aramchol (5 μM) were administered individually as drug treatments in the Stimulation Protocol concurrent with TGFβ+PDGF-BB. Culture medium treatments were replaced daily.
(§2) Four types of evaluations were conducted on the PCLS: (a) secretion of inflammation and fibrosis biomarkers into the culture medium, (b) histological staining and quantitation of Sirius red as a measure of tissue fibrosis, (c) gene expression of inflammation and fibrosis biomarkers by RT-PCR, and (d) RNA sequencing (RNA-Seq) of the complete transcriptome. Each of the four types of evaluation is described below: • (a) Biomarker secretion. Spent culture medium was collected daily from duplicate slices for each treatment. ELISAs were used to quantify secretion of monocyte chemoattractant protein (MCP-1), interleukin-6 (IL-6), tissue inhibitor of metalloproteinase-1 (TIMP1), hyaluronic acid, fibronectin, and collagen 1α1. For each donor the mean level of biomarker secretion in each treatment group was expressed as a percentage change relative to DMSO vehicle, the percentages averaged for all donors, and finally the mean daily percentage change calculated from all days of evaluation. […] Sirius red was quantified morphometrically in the histological sections as the percentage area with Sirius red staining in 10 sections from each treatment. In the Nonstimulation Protocol the quantity of Sirius red staining was expressed relative to the vehicle group. In the Stimulation Protocol the quantity of Sirius red staining was expressed relative to nonstimulated PCLS (0%) and TGFβ+PDGF-BB-stimulated+vehicle PCLS (100%). […] RNA was isolated from duplicate liver slices per treatment at the end of the experiments and evaluated by RT-PCR for 5 markers of inflammation and fibrosis: MCP-1, IL-6, TIMP1, αSMA, and collagen 1α1. β actin was used as a reference gene to calculate relative levels of each target gene RNA. […] RNA sequencing of the complete transcriptome (30 million reads per sample) was conducted on vehicle and 5 μM CRV431 treatment groups from 3 donors both from the Nonstimulation and Stimulation Protocols. […]

[2] = system: human precision cut IPF lung slices; assay: Gene expression (RT-PCR) in precision cut IPF lung slices in culture; details: CRV431 applied at 5 μM; Day 6 of culture after 4 days of treatment; β actin reference
Method: (§3) This example describes a study conducted with precision cut lung slices. Precision cut slices from explanted lung tissue from a patient with biopsy-confirmed, idiopathic pulmonary fibrosis (IPF) were cultured for 6 days. Treatments were applied to 6 replicate slices per treatment on Day 2 of culture and replaced daily on Days 3, 4, and 5 of culture.
For generating the results of gene expression shown in FIG. 6B, RNA was isolated from 6 pooled lung slices per treatment on Day 6 of culture following 4 days of drug or vehicle treatment and evaluated by reverse transcription-polymerase chain reaction (RT-PCR) for 6 markers of inflammation and fibrosis: MCP-1, IL-6, TGFβ TIMP1, collagen 1α1, and α-smooth muscle actin (αSMA). β actin was used as a reference gene to calculate relative levels of each target gene RNA.

[3] = system: human precision cut IPF lung slices; assay: Secreted markers (ELISA) in precision cut IPF lung slices in culture; details: CRV431 applied at 5 μM; 4 daily treatment intervals; relative to DMSO vehicle
Method: as §3
For generating the results of secreted marker (% daily average change) shown in FIG. 6A, spent medium (24-hr intervals) was collected on Days 3, 4, 5, and 6 to measure secretion by ELISA of six markers of inflammation and fibrosis: monocyte chemoattractant protein (MCP-1), interleukin-6 (IL-6), matrix metalloproteinase-7 (MMP-7), tissue inhibitor of metalloproteinase-1 (TIMP1), hyaluronic acid, and collagen 1α1. The mean level of secretion from 6 replicate slices for each drug treatment was expressed as a percentage change relative to DMSO vehicle treatment for each day of treatment, and then the mean percentage change from 4 daily treatment intervals was calculated.

[4] = system: human precision cut liver slices (PCLS); assay: PCLS biomarker secretion (ELISA); details: CRV431 applied at 5 μM; markers MCP-1, IL-6, TIMP1, hyaluronic acid, fibronectin, collagen 1α1
Method: as §1, §2

Cc1ccc(=O)n(-c2ccccc2)c1 [pirfenidone, reference compound]
decreased: gene expression of all markers [1] | gene expression of all markers (MCP-1, IL-6, TGFβ, TIMP1, collagen 1α1, αSMA) [2] | mean daily secretion of all markers (MCP-1, IL-6, MMP-7, TIMP1, hyaluronic acid, collagen 1α1) [3] | mean daily secretion of all markers [4]

COC(=O)c1ccc2c(c1)NC(=O)/C2=C(\Nc1ccc(N(C)C(=O)CN2CCN(C)CC2)cc1)c1ccccc1 [nintedanib, reference compound]
decreased: gene expression of all markers [1] | gene expression of all markers (MCP-1, IL-6, TGFβ, TIMP1, collagen 1α1, αSMA) [2] | mean daily secretion of all markers (MCP-1, IL-6, MMP-7, TIMP1, hyaluronic acid, collagen 1α1) [3] | mean daily secretion of all markers [4]
